In patent publication US10053453B2, “Compounds and their use as BACE inhibitors” (AstraZeneca AB, priority 2014, dated 2018):
Like-named read-outs stand apart in the source and are kept apart here.

How the values were obtained:
Human BACE1 = target: T1, Human BACE1 (Homo sapiens, UniProt P56817); assay: Diluted TR-FRET assay; format: biochemical; conditions: 50 times less enzyme, 6.5 h reaction time at r.t.; read-out: IC50 BACE1 (dil. TR-FRET)
T1 construct: the soluble part of the human β-Secretase1 (AA1-AA460) was cloned using the BACE1(1-460)-(AVT)-Fc-pGEN-IRES-neo mammalian expression vector; AVT linker (C); made in house
How it was run: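 Human BACE1 (residues 1-460) was fused to an IgG1 Fc affinity tag and stably expressed in HEK 293 cells. Using a Multidrop Combi, 7 μL enzyme was added to 0.8 μL compound in dimethylsulphoxide and incubated 10 minutes. Reactions were stopped with 5.5 μL NaOAC Stop solution (pH 9), and TR-FRET fluorescence was read on a Pherastar HTRF module.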

Human BACE2 = target: T2, Human BACE2 (Homo sapiens, UniProt Q9Y5Z0); assay: TR-FRET assay; format: biochemical; conditions: substrate 100 nM, pH4.5
T2 construct: the soluble part of the human β-Secretase2 (AA1-AA473) was cloned using BACE2(1-473)-(AVT)-Fc-pDEST12.2 mammalian expression vector; AVT linker (C); made in house
T2 sequence (Q9Y5Z0 21-473): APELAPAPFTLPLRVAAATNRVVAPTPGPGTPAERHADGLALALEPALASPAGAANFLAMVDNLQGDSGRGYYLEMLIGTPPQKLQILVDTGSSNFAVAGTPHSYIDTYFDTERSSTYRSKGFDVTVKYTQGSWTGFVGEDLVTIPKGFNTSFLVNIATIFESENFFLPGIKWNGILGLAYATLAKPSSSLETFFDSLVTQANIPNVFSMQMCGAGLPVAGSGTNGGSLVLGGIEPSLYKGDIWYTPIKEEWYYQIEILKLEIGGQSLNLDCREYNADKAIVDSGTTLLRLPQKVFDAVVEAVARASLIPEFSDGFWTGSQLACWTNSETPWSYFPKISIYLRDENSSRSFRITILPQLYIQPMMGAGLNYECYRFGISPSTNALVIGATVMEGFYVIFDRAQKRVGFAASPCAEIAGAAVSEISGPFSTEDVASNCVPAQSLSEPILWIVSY

SH-SY5Y cells = assay: sAPPβ release assay
[1] = Homo sapiens, SH-SY5Y, read-out: IC50 Cell (sAPPβ release, nM), SH-SY5Y cells, compounds incubated 16-17 h
[2] = read-out: IC50 Cell (sAPPβ release), SH-SY5Y cells, compounds incubated 16-17 h

T1 sequence (P56817 22-460): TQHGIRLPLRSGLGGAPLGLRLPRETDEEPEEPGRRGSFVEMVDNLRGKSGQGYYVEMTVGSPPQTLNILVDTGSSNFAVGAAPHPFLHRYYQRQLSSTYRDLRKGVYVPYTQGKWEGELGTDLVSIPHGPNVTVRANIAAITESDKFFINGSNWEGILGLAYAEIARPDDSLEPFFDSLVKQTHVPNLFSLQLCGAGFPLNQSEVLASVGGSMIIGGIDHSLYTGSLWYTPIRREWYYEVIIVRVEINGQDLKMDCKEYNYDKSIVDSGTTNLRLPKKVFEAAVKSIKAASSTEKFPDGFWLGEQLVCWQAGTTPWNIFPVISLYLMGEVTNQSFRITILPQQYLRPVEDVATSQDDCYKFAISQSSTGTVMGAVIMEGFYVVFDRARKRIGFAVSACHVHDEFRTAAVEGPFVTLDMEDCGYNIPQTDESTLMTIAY

Row | Compound | IC50 (Human BACE1) [nM] | IC50 (Human BACE2; enzyme 2.7 μg/mL) [nM] | IC50 (SH-SY5Y cells; [1]) [nM] | IC50 (Human BACE2; enzyme […]) [nM] | IC50 (SH-SY5Y cells; [2]) [nM]
1 | [2H]C([2H])([2H])O[C@@H]1CC[C@]2(Cc3ccc(-c4cnccc4F)cc3[C@]23N=C(N)OC3([2H])[2H])C[C@H]1C [Compound 107, {(1R,1′R,3R,4R)-4-(methoxy-d3)-3-methyl-6′-(4-fluoropyridin-3-yl)-3′H,5″H-dispiro[cyclohexane-1,2′-indene-1′,4″-oxazol]-5″,5″-d2-2″-amine}] | 294 | 2110 | 1.8 |  | 
2 | [2H]C1([2H])OC(N)=N[C@]12c1cc(-c3ccnnc3)ccc1C[C@@]21CC[C@H](OC)[C@@H](C)C1 [Compound 115, {(1S,1′R,3S,4S)-4-methoxy-3-methyl-6′-(pyridazin-4-yl)-3′H,5″H-dispiro[cyclohexane-1,2′-indene-1′,4″-oxazol]-5″,5″-d2-2″-amine}] | 346 | 2220 | 13 |  | 
3 | [2H]C1([2H])OC(N)=N[C@]12c1cc(-c3cncc(C#CC)c3)ccc1C[C@@]21CC[C@H](OC)[C@@H](C)C1 [Compound 3, (1S,1′R,3S,4S)-4-methoxy-3-methyl-6′-(5-(prop-1-yn-1-yl)pyridin-3-yl)-3′H,5″H-dispiro[cyclohexane-1,2′-indene-1′,4″-oxazol]-5″,5″-d2-2″-amine] | 1.1 | 16 | 0.2 |  | 
4 | COCCC1(C)Cc2ccc(-c3cc(C#N)cc(OC)c3)cc2C12COC(N)=N2 (stereo not drawn) [Compound 93, 3-(2′-amino-2-(2-methoxyethyl)-2-methyl-2,3-dihydro-5′H-spiro[indene-1,4′-oxazol]-6-yl)-5-methoxybenzonitrile] | > 5000 | 1210 | 561 |  | 
5 | [2H]C1([2H])OC(N)=NC12c1cc(/C(C)=N/OCCC(F)(F)F)ccc1C[C@]21CC[C@@H](OC)CC1 (stereo partly drawn) [Compound 60, (E)-1-((1r,4r)-2″-amino-4-methoxy-3′H,5″H-dispiro[cyclohexane-1,2′-indene-1′,4″-oxazol]-6′-yl-5″,5″-d2)ethan-1-one O-(3,3,3-trifluoropropyl)oxime] | > 5000 | > 5000 | 206 |  | 
6 | (1′R,4′S)-4′-methoxy-6″-(pyridin-3-yl)-3″H,5′″H-trispiro[cyclopropane-1,3′-cyclohexane-1′,2″-indene-1″,4′″-oxazol]-5′″,5′″-d2-2′″-amine and (1′S,4′R)-4′-methoxy-6″-(pyridin-3-yl)-3″H,5′″H-trispiro[cyclopropane-1,3′-cyclohexane-1′,2″-indene-1″,4′″-oxazol]-5′″,5′″-d2-2′″-amine [Compound 87] | 262 |  |  | 3480 | 4.7
7 | CC1(C2Cc3ccc(-c4cncnc4)cc3C23COC(N)=N3)CCOCC1 (stereo not drawn) [Compound 96, 2-(4-methyltetrahydro-2H-pyran-4-yl)-6-(pyrimidin-5-yl)-2,3-dihydro-5′H-spiro[indene-1,4′-oxazol]-2′-amine] | > 5000 | 1790 | 205 |  | 
8 | COc1cc(C#N)cc(-c2ccc3c(c2)C2(COC(N)=N2)C(C)(C2CCOCC2)C3)c1 (stereo not drawn) [Compound 101, 3-(2′-amino-2-methyl-2-(tetrahydro-2H-pyran-4-yl)-2,3-dihydro-5′H-spiro[indene-1,4′-oxazol]-6-yl)-5-methoxybenzonitrile] | 194 | 274 | 75.6 |  | 
9 | CC1(C2CCOCC2)Cc2ccc(-c3cncnc3)cc2C12COC(N)=N2 (stereo not drawn) [Compound 102, 2-methyl-6-(pyrimidin-5-yl)-2-(tetrahydro-2H-pyran-4-yl)-2,3-dihydro-5′H-spiro[indene-1,4′-oxazol]-2′-amine] | 2190 |  |  | > 5000 | 32.9
10 | [2H]C1([2H])OC(N)=NC12c1cc(CCC(C)C)ccc1C[C@@]21C[C@@H](C)[C@H](OC)[C@@H](C)C1 (stereo partly drawn) [Compound 43, (1r,3R,4r,5S)-6′-isopentyl-4-methoxy-3,5-dimethyl-3′H,5″H-dispiro[cyclohexane-1,2′-indene-1′,4″-oxazol]-5″,5″-d2-2″-amine] | 13.6 | 194 | 7.5 |  | 

Further lines, results first:

Row | IC50 (Human BACE1) [nM] | IC50 (Human BACE2; enzyme 2.7 μg/mL) [nM] | IC50 (SH-SY5Y cells; [1]) [nM] | IC50 (Human BACE2; enzyme […]) [nM] | IC50 (SH-SY5Y cells; [2]) [nM] | Compound
11 | 54 | 99 | 2.2 |  |  | [2H]C1([2H])OC(N)=N[C@]12c1cc(-c3cncc(C4CC4)c3)ccc1C[C@@]21CC[C@H](OC)[C@@H](C)C1 [Compound 6, (1S,1′R,3S,4S)-6′-(5-cyclopropylpyridin-3-yl)-4-methoxy-3-methyl-3′H,5″H-dispiro[cyclohexane-1,2′-indene-1′,4″-oxazol]-5″,5″-d2-2″-amine]
12 | 128 | 105 | 3.8 |  |  | [2H]C1([2H])OC(N)=NC12c1cc(-c3cncc(Cl)c3)ccc1C[C@]21CC[C@@H](OC)CC1 (stereo partly drawn) [Compound 16, (1r,4r)-6′-(5-chloropyridin-3-yl)-4-methoxy-3′H,5″H-dispiro[cyclohexane-1,2′-indene-1′,4″-oxazol]-5″,5″-d2-2″-amine]
13 | 6.8 | 37.8 | 0.39 |  |  | [2H]C1([2H])OC(N)=N[C@]12c1cc(-c3cncc(Cl)c3)ccc1C[C@@]21CC[C@H](OC)[C@@H](C)C1 [Compound 4, (1S,1′R,3S,4S)-6′-(5-chloropyridin-3-yl)-4-methoxy-3-methyl-3′H,5″H-dispiro[cyclohexane-1,2′-indene-1′,4″-oxazol]-5″,5″-d2-2″-amine]
14 | 143 | 186 | 2.9 |  |  | [2H]C1([2H])OC(N)=N[C@]12c1cc(-c3cncc(C)c3)ccc1C[C@]21CC[C@@H](OC)[C@H](C)C1 [Compound 20, (1R,1′R,3R,4R)-4-methoxy-3-methyl-6′-(5-methylpyridin-3-yl)-3′H,5″H-dispiro[cyclohexane-1,2′-indene-1′,4″-oxazol]-5″,5″-d2-2″-amine]
15 | 1130 | > 5000 | 26 |  |  | [2H]C1([2H])OC(N)=N[C@]12c1cc(-c3cncnc3C)ccc1C[C@]21CC[C@@H](OC)CC1 [Compound 116, {(1r,1′R,4R)-4-methoxy-6′-(4-methylpyrimidin-5-yl)-3′H,5″H-dispiro[cyclohexane-1,2′-indene-1′,4″-oxazol]-5″,5″-d2-2″-amine}]
16 | 307 | 221 | 7.3 |  |  | CO[C@H]1CC[C@]2(CC1)Cc1ccc(-c3cncc(C(F)(F)F)c3)cc1C21COC(N)=N1 (stereo partly drawn) [Compound 42, (1r,4r)-4-methoxy-6′-(5-(trifluoromethyl)pyridin-3-yl)-3′H,5″H-dispiro[cyclohexane-1,2′-indene-1′,4″-oxazol]-2″-amine]
17 | 11.7 |  |  | 22.7 | 0.5 | [2H]C1([2H])OC(N)=N[C@]12c1cc(-c3cncc(Cl)c3)ccc1C[C@]21CC[C@@H](OC)[C@H](C)C1 [Compound 34, (1R,1′R,3R,4R)-6′-(5-chloropyridin-3-yl)-4-methoxy-3-methyl-3′H,5″H-dispiro[cyclohexane-1,2′-indene-1′,4″-oxazol]-5″,5″-d2-2″-amine]
18 | 219 | 300 | 8.8 |  |  | CO[C@H]1CC[C@]2(CC1)Cc1ccc(-c3cncc(C#N)c3)cc1C21COC(N)=N1 (stereo partly drawn) [Compound 46, 5-((1r,4r)-2″-amino-4-methoxy-3′H,5″H-dispiro[cyclohexane-1,2′-indene-1′,4″-oxazol]-6′-yl)nicotinonitrile]
